Experimental data: patent US20070275368A1, “Posh Associated Kinases And Related Methods” (PROTEOLOGICS, LTD., priority 2003, published 2007)

Columns and labels:
HIV-1 [1] = conditions: H89 50 μM, HeLa SS6 cells transfected with pNLenv-1, 20 minutes after shift to 37° C.
Description: HeLa SS6 cells were transfected with pNLenv-1PTAP or pNLenv-1ATAA (L-domain mutant). Eighteen hours post-transfection, cells were transferred to 20° C. for two hours in order to inhibit transport of viral particles from the trans-Golgi (TGN) to the plasma membrane (PM). Subsequently, the PKA inhibitor, H89 (50 μM) (Biosource, Cat. No. PHZ1114) or DMSO were added to the cells and dishes were transferred to 37° C. to initiate transport from the TGN to the PM. Reverse transcriptase activity was assayed from virus-like-particles collected from cell supernatant twenty minutes later.
For transfections, HeLa SS6 cells were grown to 100% confluency in DMEM containing 10% FCS without antibiotics. Cells were then transfected with HIV-1NLenv1 (2 μg per 6-well) (Schubert et al., 1995).
Virus and virus-like particle (VLP) release by reverse transcriptase activity was determined one day after transfection with the pro-viral DNA as previously described (Adachi et al., 1986; Fukumori et al., 2000; Lenardo et al., 2002). The culture medium of virus-expressing cells was collected and centrifuged at 500×g for 10 minutes. The resulting supernatant was passed through a 0.45 μm-pore filter and the filtrate was centrifuged at 14,000×g for 2 hours at 4° C. […]

HIV-1 [2] = conditions: Cartier et al., 2003; cited from earlier work
[3] = system: T1, Bacterially expressed recombinant maltose-binding-protein (MBP)-hPOSH
T1 sequence: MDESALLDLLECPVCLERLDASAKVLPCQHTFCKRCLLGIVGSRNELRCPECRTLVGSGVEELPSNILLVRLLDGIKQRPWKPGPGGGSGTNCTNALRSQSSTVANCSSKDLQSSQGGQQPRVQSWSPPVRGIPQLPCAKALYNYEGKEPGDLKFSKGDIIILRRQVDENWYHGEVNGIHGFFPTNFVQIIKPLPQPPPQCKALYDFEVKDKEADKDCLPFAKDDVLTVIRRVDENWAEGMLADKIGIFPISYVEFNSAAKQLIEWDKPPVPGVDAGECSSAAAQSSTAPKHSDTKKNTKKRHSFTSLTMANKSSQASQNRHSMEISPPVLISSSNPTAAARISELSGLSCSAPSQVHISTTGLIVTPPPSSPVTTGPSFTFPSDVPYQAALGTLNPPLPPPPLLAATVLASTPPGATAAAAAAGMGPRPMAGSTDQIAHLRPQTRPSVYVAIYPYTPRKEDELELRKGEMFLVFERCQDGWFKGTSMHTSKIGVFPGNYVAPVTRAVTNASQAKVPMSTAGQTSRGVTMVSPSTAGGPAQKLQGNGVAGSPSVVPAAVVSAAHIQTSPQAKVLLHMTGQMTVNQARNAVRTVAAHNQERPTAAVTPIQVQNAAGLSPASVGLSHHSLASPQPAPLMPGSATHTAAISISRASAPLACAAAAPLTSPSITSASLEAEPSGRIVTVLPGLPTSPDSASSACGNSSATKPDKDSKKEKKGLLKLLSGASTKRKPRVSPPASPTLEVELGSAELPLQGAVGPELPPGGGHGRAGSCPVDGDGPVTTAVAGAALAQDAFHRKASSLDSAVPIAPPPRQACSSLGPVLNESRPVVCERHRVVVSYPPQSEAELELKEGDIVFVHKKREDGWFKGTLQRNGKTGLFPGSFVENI

Row | Molecule | inhibition of RT activity of virus-like-particles collected from cell supernatant (HIV-1 [1]) | block of HIV-1 release from cells (HIV-1 [2]) | phosphorylation of hPOSH (immunoblot with PKA-substrate phospho-specific antibody) [3]
1 | O=S(=O)(NCCNCC=Cc1ccc(Br)cc1)c1cccc2cnccc12 [H89, N-[2-((Pbromocinnamyl)amino)ethyl]isoquinolinesulfonamide] | complete inhibition | able to block HIV-1 release from cells | 
2 | PKA catalytic subunit (PKAc) |  |  | POSH is phosphorylated by PKA
